Converted amounts (≈) assume the structure as drawn. Like-named read-outs stand apart in the source and are kept apart here.
What was measured:
CYP2C9 = target: T1, CYP2C9 (Homo sapiens, UniProt P11712); test: CYP Inhibition Assay (tolbutamide methyl-hydroxylation); assay type: in vitro ADME; conditions: pooled human hepatic microsome, 100 μmol/L tolbutamide, 15 minutes, 37° C.
T1 construct: enzyme, pooled human hepatic microsome 0.2 mg protein/mL; from tissue
Protocol: (§1) Using commercially available pooled human hepatic microsome, and employing, as markers, 7-ethoxyresorufin O-deethylation (CYP1A2), tolbutamide methyl-hydroxylation (CYP2C9), mephenytoin 4'-hydroxylation (CYP2C19), dextromethorphan O-demethylation (CYP2D6), and terfenadine hydroxylation (CYP3A4) as typical substrate metabolism reactions of human main five CYP enzyme forms (CYP1A2, 2C9, 2C19, 2D6, 3A4) an inhibitory degree of each metabolite production amount by a test compound was assessed. […] After the centrifugation at 3000 rpm for 15 minutes, resorufin (CYP1A2 metabolite) in the supernatant was quantified by a fluorescent multilabel counter and tolbutamide hydroxide (CYP2C9 metabolite), mephenytoin 4' hydroxide (CYP2C19 metabolite), dextrorphan (CYP2D6 metabolite), and terfenadine alcohol (CYP3A4 metabolite) were quantified by LC/MS/MS. A reaction system containing only DMSO which is a solvent for dissolving a drug was adopted as a control (100%), and the remaining activity (%) was calculated, then IC50 was calculated by reverse presumption with a logistic model using a concentration and an inhibition rate.

CYP1A2 = target: T2, CYP1A2 (Homo sapiens, UniProt P05177); test: CYP Inhibition Assay (7-ethoxyresorufin O-deethylation); assay type: in vitro ADME; conditions: pooled human hepatic microsome, 0.5 μmol/L ethoxyresorufin, 15 minutes, 37° C.
T2 construct: enzyme, pooled human hepatic microsome 0.2 mg protein/mL; from tissue
T2 sequence (P05177 1-516): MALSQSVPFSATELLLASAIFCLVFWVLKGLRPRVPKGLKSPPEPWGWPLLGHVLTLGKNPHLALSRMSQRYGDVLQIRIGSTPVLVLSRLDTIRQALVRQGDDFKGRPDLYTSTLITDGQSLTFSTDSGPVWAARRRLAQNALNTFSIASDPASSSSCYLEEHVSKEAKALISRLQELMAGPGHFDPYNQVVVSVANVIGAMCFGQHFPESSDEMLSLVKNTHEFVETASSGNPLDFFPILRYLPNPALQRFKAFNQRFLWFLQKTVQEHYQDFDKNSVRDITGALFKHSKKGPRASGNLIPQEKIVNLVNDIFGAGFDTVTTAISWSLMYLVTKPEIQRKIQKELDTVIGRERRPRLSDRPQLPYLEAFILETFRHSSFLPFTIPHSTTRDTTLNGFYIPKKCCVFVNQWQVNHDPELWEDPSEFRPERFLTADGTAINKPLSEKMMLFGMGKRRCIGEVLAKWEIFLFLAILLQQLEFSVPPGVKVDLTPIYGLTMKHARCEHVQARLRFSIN
Protocol: as §1

Powder Solubility Test = assay type: physicochemical; conditions: thermodynamic from solid, shaken 1 hour at 37° C.
Protocol: Appropriate amounts of the test substances are put into appropriate containers. To the respective containers are added 200 μL of JP-1 fluid (sodium chloride 2.0 g, hydrochloric acid 7.0 mL and water to reach 1000 mL), 200 μL of JP-2 fluid (phosphate buffer (pH 6.8) 500 mL and water 500 mL), and 200 μL of 20 mmol/L TCA (sodium taurocholate)/JP-2 fluid (TCA 1.08 g and JP-2 fluid to reach […]). IN the case that all amount of the test compound is dissolved after the addition of the test fluid, the test compound is added as appropriate. The containers are sealed, and shaken for 1 hour at 37° C. The mixtures are filtered, and 100 μL of methanol is added to each of he filtrate […] so that the filtrates are two-fold diluted. The dilution ratio may be changed if necessary. The dilutions are observed for bubbles and precipitates, and then the containers are sealed and shaken. Quantification is performed by HPLC with an absolute calibration method.

CYP3A4 = target: T3, CYP3A4 (Homo sapiens, UniProt P08684); test: CYP Inhibition Assay (terfenadine hydroxylation); assay type: in vitro ADME; conditions: pooled human hepatic microsome, 1 μmol/L terfenedine, 15 minutes, 37° C.
T3 construct: enzyme, pooled human hepatic microsome 0.2 mg protein/mL; from tissue
T3 sequence (P08684 whole entry): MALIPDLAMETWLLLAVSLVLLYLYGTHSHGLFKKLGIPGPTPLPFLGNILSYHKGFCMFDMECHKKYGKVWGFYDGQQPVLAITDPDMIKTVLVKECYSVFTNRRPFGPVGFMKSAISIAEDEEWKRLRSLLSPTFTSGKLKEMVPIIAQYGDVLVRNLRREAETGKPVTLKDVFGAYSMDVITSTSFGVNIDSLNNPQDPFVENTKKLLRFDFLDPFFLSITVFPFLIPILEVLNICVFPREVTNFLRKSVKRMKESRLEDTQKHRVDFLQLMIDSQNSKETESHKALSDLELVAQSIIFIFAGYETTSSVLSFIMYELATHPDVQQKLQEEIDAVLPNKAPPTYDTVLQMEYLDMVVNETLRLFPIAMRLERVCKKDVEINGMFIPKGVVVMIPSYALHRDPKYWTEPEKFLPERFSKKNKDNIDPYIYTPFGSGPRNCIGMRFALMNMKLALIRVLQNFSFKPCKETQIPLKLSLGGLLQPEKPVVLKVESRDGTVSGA
Protocol: as §1

HIV (HTLV-IIIB strain) = test: HIV Replication Inhibition Assay; assay type: cell-based; conditions: Human immunodeficiency virus 1, MT4, 96 h, MT-4 cells, cultured four days, MTT, concentration at which cell cytotoxicity by virus is inhibited 50%
Protocol: HIV (HTLV-IIIB strain) persistent infected human T cell strain Molt-4 clone 8 was cultured in 10% Fetal Bovine Serum-containing RPMI-1640 medium and the supernatant was filtered, then the virus titer was measured and the solution was stored at −80° C. Each anti-human immunodeficiency virus active substance was diluted with the above cultured medium to the designated concentration, which was dispensed into 96 well micro plate by 50 μL. Next, a MT-4 cell suspended liquid was dispensed by 100 μL (2.5×10^4 cells), then the above HIV-containing supernatant diluted with the above cultured medium was added thereto by 50 μl (60 pfu (plaque forming unit)).
The obtained mixture was cultured at 37° C. in CO2 incubator for four days, then 3-(4,5-dimethylthiazole-2-yl)-2,5-diphenyltetrazolynium bromide (MTT) 5 mg/mL in PBS was added to each well by 30 μL, followed by 1 hr-cultivation. In this step, as formazan was precipitated by reduction of MTT in living cells, the cell supernatant was removed from all was by 150 μL, then a 150 μL of solution (10% Triton X-100 and 0.4% (v/v)-HCl containing isopropanol) was added thereto, followed by shaking with a plate mixer, to elute formazan. The formazan was measured with a microreader at OD: 560 nm and 690 nm (reference wavelength) and the result was compared with the reference. EC50 means the compound concentration at which cell cytotoxicity by virus is inhibited 50%.

T1 sequence (P11712 whole entry): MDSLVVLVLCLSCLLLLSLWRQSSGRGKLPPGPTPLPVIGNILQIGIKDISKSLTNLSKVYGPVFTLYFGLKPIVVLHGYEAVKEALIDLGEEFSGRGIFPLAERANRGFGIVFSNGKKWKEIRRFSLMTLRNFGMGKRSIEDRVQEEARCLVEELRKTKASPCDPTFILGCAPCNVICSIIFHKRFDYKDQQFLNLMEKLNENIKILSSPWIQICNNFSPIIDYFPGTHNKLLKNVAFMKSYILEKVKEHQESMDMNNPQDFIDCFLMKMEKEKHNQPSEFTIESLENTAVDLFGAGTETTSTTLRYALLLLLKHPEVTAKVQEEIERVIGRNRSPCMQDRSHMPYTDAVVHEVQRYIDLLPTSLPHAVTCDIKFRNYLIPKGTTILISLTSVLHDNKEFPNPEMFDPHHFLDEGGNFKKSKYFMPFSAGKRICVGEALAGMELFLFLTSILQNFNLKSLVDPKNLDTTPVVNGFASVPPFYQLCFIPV

IC50 (CYP2C9): > 20 µM | IC50 (CYP1A2): > 20 µM | solubility at 1 h (Powder Solubility Test; aqueous buffer, JP-2 fluid (phosphate buffer pH 6.8), read-out: powder solubility, JP-2 fluid): 0.603 µg/mL (≈ 0.899 µM) | solubility at 1 h (Powder Solubility Test; pH 1.2, simulated gastric fluid, JP-1 fluid, read-out: powder solubility, JP-1 fluid): > 1000 µg/mL | solubility at 1 h (Powder Solubility Test; pH 6.8, fassgf or other biorelevant, 20 mmol/L TCA (sodium taurocholate)/JP-2 fluid, read-out: powder solubility, 20 mmol/L TCA/JP-2 fluid): > 1000 µg/mL | IC50 (CYP3A4): > 20 µM
Structure (SMILES): Cc1ccc(-c2c([C@H](OC(C)(C)C)C(=O)O)c(C)c3c4c2cc(-c2ccnc(-c5ccc6c(cnn6C)c5)c2)n4CCN3CCN(C)C)cc1 [Compound I-034]
EC50 (HIV (HTLV-IIIB strain)): 2.4 nM

Source: patent US9975906B2, “Tricyclic heterocycle derivatives having HIV replication inhibitory effect” (Shionogi & Co., Ltd., priority 2014, dated 2018)
